Measurements taken from the supplement of paper PMC13380429.

Key:
Details in all cases: 72 h
[1] = tested on: Caco-2; test: relative viability EC50 (midpoint between 100% and the lowest measured viability); higher = less toxic
[2] = tested on: Calu-3; test: as above
[3] = tested on: Vero E6; test: as above
[4] = tested on: HepG2; test: as above
[5] = tested on: U2OS; test: as above
[6] = tested on: Caco-2; test: drug sensitivity score (DSS) for viability; higher = more toxic; extreme values may be limits of the assay
[7] = tested on: Calu-3; test: as above
[8] = tested on: Vero E6; test: as above
[9] = tested on: HepG2; test: as above
[10] = tested on: U2OS; test: as above
[11] = tested on: Caco-2; test: cell viability relative to DMSO; higher = less toxic
[12] = tested on: Calu-3; test: as above
[13] = tested on: Vero E6; test: as above
[14] = tested on: HepG2; test: as above
[15] = tested on: U2OS; test: as above

SMILES | relative viability EC50 [1] | relative viability EC50 [2] | relative viability EC50 [3] | relative viability EC50 [4] | relative viability EC50 [5] | drug sensitivity score [6] | drug sensitivity score [7] | drug sensitivity score [8] | drug sensitivity score [9] | drug sensitivity score [10] | cell viability ([11]; 1 nM) | cell viability ([11]; 10 nM) | cell viability ([11]; 100 nM) | cell viability ([11]; 1000 nM) | cell viability ([11]; 10000 nM) | cell viability ([12]; 1 nM) | cell viability ([12]; 10 nM) | cell viability ([12]; 100 nM) | cell viability ([12]; 1000 nM) | cell viability ([12]; 10000 nM) | cell viability ([13]; 1 nM) | cell viability ([13]; 10 nM) | cell viability ([13]; 100 nM) | cell viability ([13]; 1000 nM) | cell viability ([13]; 10000 nM) | cell viability ([14]; 1 nM) | cell viability ([14]; 10 nM) | cell viability ([14]; 100 nM) | cell viability ([14]; 1000 nM) | cell viability ([14]; 10000 nM) | cell viability ([15]; 1 nM) | cell viability ([15]; 10 nM) | cell viability ([15]; 100 nM) | cell viability ([15]; 1000 nM) | cell viability ([15]; 10000 nM)
O=C(O)[C@H](Cc1ccccc1)NCc1ccc(Cl)cc1 | > 10 µM | > 10 µM | > 10 µM | > 10 µM | > 10 µM | 0 | 0 | 0 | 0 | 0 | 107% | 99.6% | 106% | 101% | 102% | 92.8% | 91.5% | 93.8% | 98% | 92.5% | 99.8% | 102% | 92.9% | 99.4% | 101% | 95.6% | 101% | 97.1% | 93.3% | 103% | 95.2% | 98.7% | 91% | 98.3% | 94.5%
Cc1cn([C@H]2C=C[C@@H](CO)O2)c(=O)[nH]c1=O [stavudine] | > 10 µM | > 10 µM | > 10 µM | > 10 µM | > 10 µM | 0 | 0 | 0 | 0 | 0 | 92.7% | 92.4% | 82.9% | 113% | 88.6% | 94.1% | 102% | 92.9% | 101% | 108% | 92.7% | 94.5% | 95.9% | 104% | 105% | 88.4% | 91.5% | 93.8% | 98.4% | 95% | 102% | 99.7% | 103% | 96.7% | 106%
Cc1cc2nc3c(=O)[nH]c(=O)nc-3n(C[C@H](O)[C@H](O)[C@H](O)COP(=O)(O)O)c2cc1C [riboflavin-5-phosphate-sodium] | > 10 µM | > 10 µM | > 10 µM | > 10 µM | > 10 µM | 0 | 0 | 0 | 0 | 0 | 97.8% | 104% | 103% | 100% | 90.3% | 91.4% | 102% | 92.7% | 104% | 99.8% | 101% | 102% | 97.2% | 95.7% | 97.2% | 97.8% | 104% | 101% | 98% | 108% | 102% | 97.9% | 94.4% | 98.2% | 91.9%
NC1(C(=O)O)CC1 [ACPC] | > 10 µM | > 10 µM | > 10 µM | > 10 µM | > 10 µM | 0 | 0 | 0 | 0 | 0 | 92.3% | 98.6% | 104% | 87.7% | 105% | 98.6% | 93.4% | 93.1% | 102% | 96.8% | 102% | 96.9% | 96.7% | 94.5% | 98.4% | 103% | 98.9% | 90% | 99.5% | 93.4% | 93.8% | 96% | 95.9% | 96.3% | 98.1%
O=C(O)c1cc(O)c(O)c(O)c1 [gallic-acid] | > 10 µM | > 10 µM | > 10 µM | > 10 µM | > 10 µM | 0 | 0 | 0 | 1.6 | 0 | 104% | 89.2% | 109% | 96.7% | 101% | 85.4% | 93% | 96.4% | 102% | 102% | 99.1% | 92.4% | 95% | 106% | 102% | 100% | 94.8% | 102% | 91.4% | 79.6% | 99.4% | 94.8% | 96.5% | 97.3% | 106%
CN1CC(O)C2=C/C(=N/NC(N)=O)C(=O)C=C21 (stereo not given) [carbazochrome] | > 10 µM | > 10 µM | > 10 µM | > 10 µM | > 10 µM | 0 | 0 | 0 | 0 | 0 | 93.3% | 88.5% | 91.5% | 102% | 109% | 105% | 95.3% | 103% | 93.9% | 93.4% | 101% | 97% | 93.9% | 96.8% | 103% | 98.8% | 97% | 92.2% | 97.1% | 93.1% | 101% | 97.6% | 98.2% | 92.7% | 101%
Cc1nc2ccc(Oc3ccc(F)cc3)cc2c(=O)n1C[C@H]1CCCN(C(C)C)C1 [YIL-781] | > 10 µM | > 10 µM | > 10 µM | > 10 µM | > 10 µM | 0 | 0 | 0 | 0 | 0 | 102% | 93.5% | 87.2% | 97.5% | 92.6% | 107% | 88.2% | 94.9% | 97.7% | 97.8% | 93.8% | 98.3% | 96.4% | 94.3% | 88.3% | 101% | 100% | 97.4% | 102% | 90.7% | 104% | 97.1% | 98.6% | 94.4% | 94.7%
Oc1ccc(O)cc1 [hydroquinone] | > 10 µM | > 10 µM | > 10 µM | > 10 µM | > 10 µM | 0 | 0 | 0 | 0.3 | 0 | 100% | 97.6% | 94.2% | 104% | 106% | 90.5% | 90% | 93.7% | 100% | 113% | 93.3% | 100% | 94.8% | 105% | 111% | 106% | 92.4% | 94.7% | 100% | 84.6% | 95.2% | 91% | 95.4% | 89% | 117%
CS(=O)(=O)c1ccc(C2=C(c3ccccc3)C(=O)OC2)cc1 [rofecoxib] | > 10 µM | > 10 µM | > 10 µM | > 10 µM | > 10 µM | 0 | 0 | 0 | 0 | 0 | 96.4% | 93.8% | 100% | 91.1% | 92.7% | 99.1% | 100% | 98% | 101% | 102% | 93.6% | 105% | 88.4% | 95.3% | 102% | 95.7% | 104% | 95.2% | 103% | 101% | 101% | 98.9% | 100% | 98.8% | 99.5%
Nc1nc2c(ccc3ccccc32)s1 [SKA-31] | > 10 µM | > 10 µM | > 10 µM | > 10 µM | > 10 µM | 0 | 0 | 0 | 0 | 0 | 99.6% | 104% | 97.5% | 106% | 93.9% | 98.3% | 103% | 101% | 103% | 96.7% | 102% | 100% | 103% | 100% | 97.8% | 118% | 109% | 114% | 110% | 99.1% | 100% | 103% | 101% | 102% | 98.9%
CCOC(=O)C1=CCCC[C@H]1S(=O)(=O)Nc1ccc(F)cc1Cl [resatorvid] | > 10 µM | > 10 µM | > 10 µM | > 10 µM | > 10 µM | 0 | 0 | 0 | 0 | 0 | 98.4% | 98.9% | 93.6% | 99% | 96.1% | 94.8% | 104% | 92.9% | 111% | 96.2% | 95.2% | 103% | 97.6% | 88.4% | 98.4% | 104% | 95.6% | 109% | 110% | 98.6% | 100% | 97.7% | 96.9% | 99.6% | 94.7%
c1cc2c(c(N3CCNCC3)c1)OCCO2 [eltoprazine] | > 10 µM | > 10 µM | > 10 µM | > 10 µM | > 10 µM | 0 | 0 | 0 | 0 | 0 | 105% | 97.1% | 106% | 108% | 101% | 92.4% | 76.5% | 97.7% | 108% | 107% | 96.5% | 96.5% | 97.9% | 91.9% | 103% | 97% | 101% | 92.2% | 92.4% | 95.7% | 98.4% | 99.6% | 92.9% | 93.6% | 88.2%
O=C(/C=C/c1ccc2c(c1)OCO2)N1CCCCC1 [ilepcimide] | > 10 µM | > 10 µM | > 10 µM | > 10 µM | > 10 µM | 0 | 0 | 0 | 0 | 0 | 96.3% | 104% | 106% | 130% | 102% | 99.5% | 108% | 106% | 102% | 102% | 91% | 98.1% | 94.2% | 96.6% | 97.7% | 102% | 97.2% | 106% | 112% | 103% | 98.2% | 94.6% | 98.3% | 95.8% | 97.1%
CCC(=O)OCC(=O)[C@@]1(OC(=O)CC)[C@@H](C)C[C@H]2[C@@H]3CCC4=CC(=O)C=C[C@]4(C)[C@@]3(Cl)[C@@H](O)C[C@@]21C [beclomethasone-dipropionate] | > 10 µM | > 10 µM | > 10 µM | > 10 µM | > 10 µM | 0 | 0 | 0 | 2.6 | 0 | 97.1% | 97.3% | 94.3% | 104% | 111% | 104% | 106% | 97% | 101% | 88.6% | 95.8% | 90.6% | 102% | 80.1% | 99.5% | 97.3% | 95.7% | 99.2% | 81.3% | 80.2% | 96.8% | 102% | 95.9% | 99.1% | 97.2%
CC1=C(/C=C/C(C)=C/C=C/C(C)=C/C=C/C=C(C)/C=C/C=C(C)/C=C/C2=C(C)CCCC2(C)C)C(C)(C)CCC1 [beta-carotene] | > 10 µM | > 10 µM | > 10 µM | > 10 µM | > 10 µM | 0 | 0 | 0 | 0 | 0 | 89.3% | 99.3% | 104% | 92.7% | 98.5% | 98.9% | 104% | 104% | 97.4% | 105% | 93.8% | 102% | 96.3% | 104% | 108% | 96.1% | 103% | 94.6% | 110% | 106% | 92.6% | 95.1% | 102% | 93.9% | 101%
